Data reported in a melting point compilation (Tetko et al.; mined from patent text by program, amines drawn as free bases though some values may be those of a salt).

| SMILES | melting point [°C] |
| --- | --- |
| OCCn1cc(C(F)(F)F)nc1-c1ccc(O)cc1 | 186 to 188 |
| Cc1cccc(NCC2=NCCN2C(=O)Nc2ccc(Cl)cc2)c1C | 153 to 155 |
| Oc1cc2c(cc1O)OCC(c1cccc(C(F)(F)F)c1)C2 (centres undefined) | 139 to 141 |
| CNC(=NCCSCc1cc(CN(C)C)ccn1)NC#N | 114 to 116 |
| CC1=NC(=Cc2ccc(F)cc2)C(=O)O1 | 156 |
| N#Cc1cc(Cl)nc(NN)c1 | 208 to 210 |
| COc1ccc(-c2ccc3c(c2)CC[C@H]2N(C)C(=O)CC[C@]32C)cc1OC | 108 to 112 |
| N=C(N)Nc1nc(CSCCNC2=C([N+](=O)[O-])CCCN2)cs1 | 211 to 212 |
| Cc1cc(Nc2ccc(S(F)(F)(F)(F)F)cc2)c(S(C)(=O)=O)cc1C(=O)O | 106 to 109 |
| CCOc1cc2c(C)c(CCOS(C)(=O)=O)c(=O)oc2cc1OC | 153 to 154 |
| CCc1cc2c(cc1C(CC)SCC(=O)O)OCO2 (centres undefined) | 88 to 89 |
| Clc1ccc2cc(Br)sc2n1 | 116 |
| C=CCOc1ccc(-c2ccc(C(=O)O)cc2)cc1 | 360 |
| Cn1cncc1C(c1ccc(Cl)cc1)c1ccc2c(c1)c(-c1ccccc1)cc(=O)n2C (centres undefined) | 96.8 |
| O=C(O)Cc1ccc2c(c1)CCc1cccnc1O2 | 203 to 204 |
| COc1ccc(-c2[nH]nc3c2C(=O)c2c(NC(=O)CNCCO)cccc2-3)cc1 | 243 |
| COC(=O)c1sc(S(C)(=O)=O)cc1OCc1ccccc1 | 125 to 126 |
| Nc1c([N+](=O)[O-])cnn1-c1c(F)c(F)c(C(F)(F)F)c(F)c1F | 123 to 126 |
| O=c1[nH]c2cc(Cl)ccc2c(O)c1Sc1nc2ccccc2s1 | > 270 |
| [N-]=[N+]=Nc1ccc(CBr)cc1Cl | 75 to 77 |
| COC(=O)c1cn(-c2ccc3ccccc3c2)cn1 | 143 to 144 |
| O=C(N[C@H](Cc1ccc(C(F)(F)F)cc1)[C@@H](O)c1cccc2ccccc12)c1cccc2ccccc12 (racemic) | 217 to 218 |
| Cc1[nH]c2ccc(/C=C/C(=O)OCc3ccccc3)cc2c1Cn1ccnc1 | 120 to 122 |
| CC(C)[C@@H](NC(=O)c1cnc(N2CCC(N3C(=O)OCc4ccccc43)CC2)c(Cl)c1)C(N)=O | 140 to 143 |
| CCCCc1nc2ccccn2c(=O)c1-c1ccc(Cl)c(C)c1 | 122 to 124 |
| COc1nc(NC(=O)NS(=O)(=O)c2ccccc2OCC#N)nn1C | 205 to 207 |

| SMILES | melting point [°C] |
| --- | --- |
| c1ccc(Cn2ccc3nnc4ccccc4c32)cc1 | 190 to 192 |
| COc1ccc2[nH]c(S(=O)Cc3c(N)cc(C)c(OC)c3C)nc2c1 (centres undefined) | 149 to 155 |
| N#Cc1cccc(-c2ccc3cc[nH]c(=O)c3c2)c1 | > 300 |
| O=C1c2ccccc2C(=O)N1CC1Cc2ccc3c(c2O1)CCC3 (centres undefined) | 131 to 135 |
| O=C(O)c1cnn(O)c1 | 230 |
| Cc1c(Br)nc2n1CCc1ccccc1C2=C1CCN(C)CC1 | 116 |
| CC1CCCC2C1N2CC(O)Cn1ccnc1[N+](=O)[O-] (centres undefined) | 124 |
| CCc1ccc(-c2ccccc2)cc1O | 62 to 65 |
| Fc1ccc(C#Cc2nccs2)cc1 | 78 to 79 |
| CC(C)c1nc(CN(C)C(=O)NC(C(=O)NC(Cc2ccccc2)CC(O)C(Cc2ccccc2)NC(=O)OCc2cncs2)C(C)C)cs1 (centres undefined) | 122 to 123 |
| CCc1c[nH]c(C2Cc3ccccc3N2C(=O)Nc2ccccc2[N+](=O)[O-])n1 (centres undefined) | 208 to 209 |
| CCc1noc(C)c1-c1[nH]c2ccccc2c1CN(C)C | 88 to 90 |
| Cc1cc(Oc2c(Cl)cc(C(F)(F)F)cc2Cl)nn1C(=O)NC(C)(C)C | 116 to 117 |
| CCN(CC)c1ccc2nc3c4ccc(Br)cc4c(=Nc4ccncc4)cc-3oc2c1 | 269 to 271 |
| CC1=CCC2(C)C(CCC3C4CCC(=O)C4(C)CCC32)C1 (centres undefined) | 124 to 126 |
| CC(C)(C)C(=O)Nc1ccc(C(F)(F)F)cc1 | 154 to 158 |
| N#Cc1ccc(N2CCC(CC(=O)O)CC2)c2ccccc12 | 195 to 196 |
| COC(=O)c1cc(C(=O)c2ncc3ccc(C(=O)OC(C)(C)C)cn23)ccc1[N+](=O)[O-] | 170 |
| C[C@@H](SN1CCOCC1)[C@](O)(Cn1cncn1)c1ccc(F)cc1F | 119 to 121 |
| CC1(Cl)C(=O)N(c2ccc(Cl)c(Cl)c2)N=C1C#N (centres undefined) | 68 to 69 |
| O=c1c(-c2nnn[nH]2)cnc2c(Cl)cccn12 | 313 to 315 |
| O=C(O)c1ccc(C(=O)N2CCCc3ccccc32)cc1 | 181 to 183 |
| CNCCOC(=O)[C@@H](C)c1ccc2cc(OC)ccc2c1 | 64 to 68 |
| CC1=NN(C)c2nc(C)c(CCCl)c(=O)n2C1 | 180 |
| Cc1ccccc1NC(=O)C(Cl)Cl | 192 to 195 |
| COC(=O)c1cccc(Cl)c1NC(C)=O | 135 to 136 |

| SMILES | melting point [°C] |
| --- | --- |
| COc1c(N2C[C@@H](N)[C@@H](C)C2)c(F)cc2c(=O)c(C(=O)O)cn(C3CC3)c12 (relative stereo) | 192 to 194 |
| CCOc1ccc(F)c(N=Cc2cnc(SC)nc2NC2CCCC2)c1F | 136 to 141 |
| CCOc1nn(Cc2ccnc(OCc3cn4c(-c5ccccc5)cccc4n3)c2)cc1CCC(=O)O | 177 to 178 |
| Cn1nc(-c2c(F)cccc2Cl)nc1-c1ccc([N+](=O)[O-])cc1Cl | 144 to 148 |
| CCCCC=Cc1ccc(Cc2c(C)[nH]c3ccc(C(=O)OC)cc23)c(Cl)c1 | 141 to 146 |
| CC1(C)C=C(c2ccccn2)c2ccc(Cl)c(Cl)c2OC1 | 112 |
| CCC(=O)Nc1c([N+](=O)[O-])cnn1-c1ccc(Cl)c(Cl)c1Cl | 79 to 81 |
| Cc1c(C=O)ncn1Cc1ccccc1 | 107 to 110 |
| CCCCn1c(=O)c2c(ncn2CCCCC(C)=O)n(CCCC)c1=O | 88 |
| O=C(CC(O)(c1cc(Cl)cc(Cl)c1)C(F)(F)F)c1ccc(Br)c2ccccc12 (centres undefined) | 74.5 to 75 |
| COc1cc(-c2ccncc2)n[nH]1 | 140 |
| CC(C)(C)Nc1cc(N2CCNCC2)nc(NC(C)(C)C)n1 | 142 to 145 |
| NCCNc1ncc2ncnc(Nc3ccc(F)c(Cl)c3)c2n1 | 173 to 175 |
| COc1ccc(CN2C(=O)CC2COS(C)(=O)=O)c(OC)c1 (centres undefined) | 71 to 72 |
| COc1cc(C(=O)Nc2cc(F)ccc2C(=O)O)cc(OC)c1OC | 232 to 233 |
| Cc1cc(OCCN2CCC(n3cnc4cccnc43)CC2)nn1-c1ccc(Cl)c(Cl)c1 | 104 to 107 |
| CCOC(=O)c1nnn[nH]1 | 86 to 90 |
| Cc1cc(Oc2c(Cl)cc(C(F)(F)F)cc2Cl)nn1C(=O)NC(C)C | 103 to 105 |
| COc1cc2cc(CO)c(CO)c(-c3ccnc(NC(C)CCCO)c3)c2cc1OC (centres undefined) | 57 to 61 |
| Nc1ncc2cc(-c3c(Cl)cccc3Cl)c(=O)n(CCCc3ccccc3)c2n1 | 161 to 163 |
| COC(C1=CN(C)CS1)c1ccccc1COc1cc(Cl)ccc1Cl (centres undefined) | 78.5 to 79.5 |
| N#Cc1ccc(CCC(=O)C2CC2)cc1 | 76 |
| O=C(OCc1ccccc1)c1cc2c(=O)n(Cc3ccccc3)c(=O)[nH]c2s1 | 195 to 197 |
| O=Cc1cccc(Oc2cccc(F)c2)n1 | 42 to 43 |
| Cn1c2cc(Cl)ccc2c(=O)c2c(Br)cccc21 | 223 to 225 |
| CCN(CC)C(=O)c1c(OC)cccc1S(N)(=O)=O | 190 to 194 |

| SMILES | melting point [°C] |
| --- | --- |
| COC1(c2nc(Br)c(Sc3ccc(/C(C)=N/O)cc3)s2)CCOCC1 | 130 |
| CCCSc1sc(C(=O)OCC)c2c1C(=O)C(NC(=O)CC)CC2 (centres undefined) | 191 to 192 |
| Cc1noc(NS(=O)(=O)c2ccccc2-c2cccnc2)c1C | 147 to 150 |
| CCCOc1nc2ccccc2[nH]1 | 163 to 164 |
| C=C(C)C(=O)OCCOc1ccc(-c2cc(OC(=O)C(=C)C)cc(-c3ccc(OCCOC(=O)C(=C)C)cc3)c2)cc1 | 99 |
| CN(C)C(=O)Cc1c(C(=O)c2ccccc2)[nH]c2cc(Cl)ccc12 | 190 to 193 |
| CC(C)(CF)C(O)C(c1ccc(Cl)cc1Cl)n1cncn1 (centres undefined) | 98 to 100 |
| CC(=O)Nc1nc(C)c(-c2ccc(S(C)(=O)=O)cc2)s1 | 251 to 253 |
| COc1ccc(Nc2cc(-c3ccc(S(C)(=O)=O)cc3)nc(N)n2)cc1Cl | 241 to 244 |
| N[C@@H](Cc1ccc(OCc2ccccc2)cc1)C(=O)NCCN1CCCCC1 | 58 to 61 |
| CC(C(=O)O)N(C(=O)OC(C)(C)C)c1ccc([N+](=O)[O-])cc1 (centres undefined) | 100 to 104 |
| Cc1nc(N2CCOCC2)c2c(n1)N(CC(O)CO)C(=O)CO2 (centres undefined) | 153 to 155 |
| c1cc2c3c(cccc3c1)C(NCCCCCCCn1ccnc1)=N2 | 48 to 50 |
| O=C(O)COc1cccc2c1CCc1sc(S(=O)(=O)CCCC(c3ccccc3)c3ccccc3)nc1-2 | 180 to 181 |
| CN1CCN(CC/C=C/c2ccc3ncc(C#N)c(Nc4ccc(Cl)cc4Cl)c3c2)CC1 | 97 to 98 |
| O=C(O)C(c1ccccc1)n1cnc2[nH]ncc2c1=S (centres undefined) | 95 to 98 |
| C1=C(c2ccccc2)c2ccccc2C1(Cc1ccncc1)Cc1ccncc1 | > 250 |
| O=C(O)c1ccc(OC(=O)c2cccc(C(=O)Oc3ccc(C(=O)O)cc3)c2)cc1 | 290 to 300 |
| CCc1cccc(C)c1CNc1cc(C(=O)O)cn2c(C)nnc12 | 328 |
| CC(C)(C)c1cc(CC(C)(C)C2OCCS2)cc(C(C)(C)C)c1O (centres undefined) | 77 |
| CCN(CC)CCOc1ccc2c(=O)c3ccc(OCCN(CC)CC)cc3oc2c1 | 70.5 to 72 |
| O=c1oc2cc(O)c(F)cc2s1 | 141 to 143 |
| C[C@@H]1CCN(C(=O)CC#N)C[C@@H]1N(C)c1ncnc2sccc12 | 74.3 |
| COc1cc2cc(C(=O)N3CC(CCl)c4c3cc(N)c3ncccc43)[nH]c2c(OC)c1OC (centres undefined) | 225 to 227 |
| CC(Cc1ccc(Oc2cc(N3CCN(Cc4ccccc4)CC3)nc(Oc3ccccc3)n2)cc1)(Oc1ccccc1)C(=O)O (centres undefined) | 126 to 128 |
| CC(C(=O)O)c1ccc(-c2nc3ccccc3o2)c(F)c1 (centres undefined) | 168 to 171 |
